Experiment [1] deals with human Y4/PP1 receptor (Homo sapiens, UniProt P50391). The experiment in a line: Human Y4/PP1 receptor binding assay ([125I]human PP, membrane protein). The note with it: [125I]human PP, membrane protein; read-out: hNPY4 IC50. The procedure: B. Human Y2 and Y4/PP1 Receptor Binding Assays
Binding assays were performed on GF/C Millipore 96-well plates pretreated with 0.02% polyethylenimine. The binding buffer for rat Y2 binding is Krebs-Ringer bicarbonate (pH 7.4) containing 0.01% BSA and 0.005% bacitracin. Samples consist of membrane protein, 25 pM [1251]PYY and drug dilution. Nonspecific binding is defined by 1 μM NPY. The binding buffer for human Y4/PP1 binding consists of 137 mM NaCl, 5.4 mM KCl, 0.44 mM KH2PO4, 1.26 mM CaCl2, 0.81 mM MgSO4, 20 mM HEPES, 1 mM dithiothreitol, 0.1% bacitracin, 100 mg/l streptomycin sulfate, 1 mg/l aprotinin, 10 mg/ml soybean trypsin inhibitor and 0.3% BSA, pH 7.4. Samples consist of membrane protein, 50 pM human [1251]human PP (hPP: NEN DuPont, Boston, Mass.) and drug dilution. 1 μM hPP is used to define nonspecific binding.
After a 2 hour incubation at room temperature with constant mixing, the samples are aspirated on a vacuum manifold, and rinsed with ice-cold binding buffer. The amount of radioactivity in each well is quantitated with either gamma counting or liquid scintillation.

For experiment [2], the target named is T1, Y2 receptor (Homo sapiens, UniProt P49146).
T1 sequence (P49146 1-381): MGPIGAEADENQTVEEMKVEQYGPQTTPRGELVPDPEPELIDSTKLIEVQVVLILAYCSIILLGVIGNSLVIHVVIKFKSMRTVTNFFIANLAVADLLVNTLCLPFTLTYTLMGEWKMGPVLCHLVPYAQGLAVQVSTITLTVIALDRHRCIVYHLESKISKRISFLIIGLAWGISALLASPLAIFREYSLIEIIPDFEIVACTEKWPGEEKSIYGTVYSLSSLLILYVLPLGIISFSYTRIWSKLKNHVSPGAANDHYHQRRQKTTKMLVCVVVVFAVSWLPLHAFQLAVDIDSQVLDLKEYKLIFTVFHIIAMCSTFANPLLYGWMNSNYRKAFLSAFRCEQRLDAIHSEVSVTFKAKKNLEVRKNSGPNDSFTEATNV
The experiment in a line: Y2 receptor binding assay ([125I]PYY, membrane protein). The following applies: [125I]PYY, membrane protein; read-out: hNPY2 IC50. In a few lines:
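Filtration binding with membrane protein and drug dilution, 2 h at room temperature with mixing, radioactivity counted by gamma or scintillation. Y2: 25 pM [125I]PYY in Krebs-Ringer bicarbonate pH 7.4 with 0.01% BSA, nonspecific by 1 μM NPY. Y4/PP1: 50 pM [125I]hPP in HEPES-buffered saline pH 7.4 with protease inhibitors and 0.3% BSA, nonspecific by 1 μM hPP.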

For experiment [3], the target named is T2, Human NPY5 receptor (Homo sapiens, UniProt Q15761).
T2 sequence (Q15761 1-445): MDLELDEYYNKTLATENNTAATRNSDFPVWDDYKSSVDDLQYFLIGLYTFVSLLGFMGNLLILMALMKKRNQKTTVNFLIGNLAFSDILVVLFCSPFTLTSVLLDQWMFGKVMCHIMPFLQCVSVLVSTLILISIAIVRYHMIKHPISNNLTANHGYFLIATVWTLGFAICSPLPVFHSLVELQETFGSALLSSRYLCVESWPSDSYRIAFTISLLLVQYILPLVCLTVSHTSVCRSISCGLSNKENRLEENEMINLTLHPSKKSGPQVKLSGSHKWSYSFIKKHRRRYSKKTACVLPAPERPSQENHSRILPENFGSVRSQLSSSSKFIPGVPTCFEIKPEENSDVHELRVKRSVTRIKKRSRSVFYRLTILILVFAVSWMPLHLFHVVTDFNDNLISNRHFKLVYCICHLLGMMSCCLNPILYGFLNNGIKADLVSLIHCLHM
The experiment in a line: Human NPY5 receptor binding assay ([125I]PYY, membrane protein). The note with it: read-out: hNPY5 IC50. An outline of the steps: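 Filter binding with membrane protein and porcine [125I]PYY at 75-100 pM, 2 h at room temperature; nonspecific binding set by 1 μM PYY.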

Experiment [4] concerns the target T3, Rat NPY5 receptor (Rattus norvegicus, UniProt Q63634).
T3 sequence (Q63634 1-445): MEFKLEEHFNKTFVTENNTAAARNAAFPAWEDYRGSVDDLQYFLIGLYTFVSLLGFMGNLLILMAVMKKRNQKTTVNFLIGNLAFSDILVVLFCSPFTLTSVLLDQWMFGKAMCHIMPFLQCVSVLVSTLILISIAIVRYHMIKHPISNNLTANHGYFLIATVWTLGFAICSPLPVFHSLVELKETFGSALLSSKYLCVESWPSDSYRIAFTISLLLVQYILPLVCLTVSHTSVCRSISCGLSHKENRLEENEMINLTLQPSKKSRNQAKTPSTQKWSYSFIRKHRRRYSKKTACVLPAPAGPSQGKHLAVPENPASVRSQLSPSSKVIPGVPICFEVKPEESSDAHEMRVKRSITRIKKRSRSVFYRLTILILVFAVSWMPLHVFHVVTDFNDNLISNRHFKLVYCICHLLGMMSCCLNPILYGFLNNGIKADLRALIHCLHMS
The experiment in a line: Rat NPY5 receptor binding assay ([125I]PYY, membrane protein). The following applies: [125I]PYY binding, read-out: rNPY5 IC50. On the procedure:
C. Human and Rat NPY5 Receptor Binding Assays
Binding assays are performed on GF/C Millipore 96well plates pretreated with 0.02% polyethylenimine. The binding buffer is 25 mM Tris, 120 mM NaCl, 5 mM KCl, 1.2 mM KH2PO4, 2.5 mM CaCl2, 1.2 mM MgSO4, 0.1% BSA and 0.5 mg/ml bacitracin, pH 7.4. Samples consist of membrane protein, 75-100 pM [125I]PYY (porcine, NEN-DuPont) and drug dilution. Nonspecific binding is defined by 1 μM PYY. After a 2 hour incubation at room temperature with constant mixing, the samples are aspirated on a vacuum manifold, and rinsed with ice-cold binding buffer. The amount of radioactivity in each well is quantitated with either gamma counting or liquid scintillation.

Counter-ions that a name gives are not always drawn. Like-named read-outs stand apart in the source and are kept apart here.

Chain of human Y4/PP1 receptor (P50391 whole entry): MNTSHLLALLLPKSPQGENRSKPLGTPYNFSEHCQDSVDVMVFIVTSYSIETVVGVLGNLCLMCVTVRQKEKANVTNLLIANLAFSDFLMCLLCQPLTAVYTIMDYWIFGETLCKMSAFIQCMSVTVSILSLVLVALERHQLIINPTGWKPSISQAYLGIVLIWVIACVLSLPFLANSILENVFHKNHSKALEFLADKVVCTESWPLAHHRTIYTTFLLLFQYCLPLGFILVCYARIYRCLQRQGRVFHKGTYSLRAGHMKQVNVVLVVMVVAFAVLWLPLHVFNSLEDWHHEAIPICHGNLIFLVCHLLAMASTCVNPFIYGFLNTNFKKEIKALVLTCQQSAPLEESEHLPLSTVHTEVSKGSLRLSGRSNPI

As to `NC(=O)c1cc(N)ccc1NC(=O)CN1CCC(n2c(=O)[nH]c3ccccc32)CC1` [Compound 334, 5-Amino-2-{2-[4-(2-oxo-2,3-dihydro-benzoimidazol-1-yl)piperidin 1-yl]-acetylamino}-benzamide, reference compound], the IC50 in experiment [1] and in experiment [2] was over 5000 nM each time.
Turning to `O=C(CNCCCn1c(=O)[nH]c2ccccc21)Nc1ccc(C2CCCCC2)cc1` [Compound 276, N-(4-Cyclohexyl-phenyl)-2-[3-(2-oxo-2,3-dihydro-benzoimidazol-1-yl)-propylamino]-acetamide], the half-inhibitory concentration (IC50) (usually the midpoint of a concentration-inhibition curve) in experiment [1] is over 5000 nM; in experiment [2], over 5000 nM; in experiment [3] ([125I]PYY) it was 1100 nM.
`COc1ccc(-c2ccccc2)cc1NC(=O)CN1CCC(n2c(=O)[nH]c3ccccc32)CC1` [Compound 328, N-(4-Methoxy-biphenyl-3-yl)-2-[4-(2-oxo-2,3-dihydro-benzoimidazol-1-yl)-piperidin-1-yl]-acetamide; hydrochloride]: the half-maximal inhibitory concentration (IC50) in experiment [1] and in experiment [2] was over 5000 nM each time.
With `COC(=O)c1cc(Cl)ccc1NC(=O)CN1CCC(n2c(=O)[nH]c3ccccc32)CC1` [Compound 333, 5-Chloro-2-{2-[4-(2-oxo-2,3-dihydro-benzoimidazol-1-yl)-piperidin 1-yl]-acetylamino}-benzoic acid methyl ester, reference compound], the IC50 in experiment [1] and in experiment [2] was over 5000 nM throughout.
Consider `Nc1ccccc1NC(=O)CN1CCC(n2c(=O)[nH]c3ccccc32)CC1` [Compound 331, N-(2-Amino-phenyl)-2-[4-(2-oxo-2,3-dihydro-benzoimidazol-1-yl)-piperidin-1-yl]-acetamide, reference compound], for which the IC50 in experiment [1] and in experiment [2] was over 5000 nM each time.
As for `O=C(CN1CCC(CO)CC1)Nc1ccc(C2CCCCC2)cc1` [Compound 200, N-(4-Cyclohexyl-phenyl)-2-(4-hydroxymethyl-piperidin-1-yl)-acetamide], the IC50 in experiment [4] was 340 nM; in experiment [3] ([125I]PYY binding) it was 530 nM.
The corresponding values for `CC(C)(C)OC(=O)NC1CCN(CC(=O)Nc2ccc(C3CCCCC3)cc2)C1` (stereo not drawn) [Compound 194, {1-[(4-Cyclohexyl-phenylcarbamoyl)-methyl]-pyrrolidin-3-yl}-carbamic acid tert-butyl ester] are 35 nM and 37 nM.
As to `O=C(CNCc1ccco1)Nc1ccc(C(=O)c2ccccc2)cc1` [Compound 166, N-(4-Benzoyl-phenyl)-2-[(furan-2-ylmethyl)-amino]-acetamide], the IC50 in experiment [4] was 730 nM; in experiment [3] ([125I]PYY binding), 610 nM.
For the compound “N-{[(4-Cyclohexyl-phenylcarbamoyl)-methyl]-pyrrolidin-3-yl}-2,2,2-trifluoro-acetamide [Compound 197]”, the figures for the IC50 in experiment [4] and in experiment [3] ([125I]PYY binding) were 20 nM and 21 nM, respectively.
As for `CCNC1CCN(CC(=O)Nc2ccc(C(=O)c3ccccc3)cc2)C1` (stereo not drawn) [Compound 206, N-(4-Benzoyl-phenyl)-2-(3-ethylamino-pyrrolidin-1-yl)-acetamide], the concentration for half-maximal inhibition (IC50) turned out to be 48 nM in experiment [4] and 42 nM in experiment [3] ([125I]PYY binding).
Regarding `O=C(CNCC1CC1)Nc1ccc(C2CCCCC2)cc1` [Compound 174, N-(4-Cyclohexyl-phenyl)-2-(cyclopropylmethyl-amino)-acetamide], the 50% inhibitory concentration (IC50) in experiment [4] came to 840 nM; in experiment [3] ([125I]PYY binding), 610 nM.
As for “N-(4-Cyclohexyl-phenyl)-2-(3-ethylamino-pyrrolidin-1-yl)-acetamide [Compound 196]”, the figures for the half-maximal inhibitory concentration (IC50) in experiment [4] and in experiment [3] ([125I]PYY binding) were 49 nM and 43 nM, respectively.
With `CCCC(CO)NCC(=O)Nc1ccc(C2CCCCC2)cc1` (stereo not drawn) [Compound 216, N-(4-Cyclohexyl-phenyl)-2-(1-hydroxymethyl-butylamino)-acetamide], the figures for the IC50 in experiment [4] and in experiment [3] ([125I]PYY binding) were over 10000 nM and 450 nM, respectively.
`CN(C(=O)OC(C)(C)C)C1CCN(CC(=O)Nc2ccc(C(=O)c3ccccc3)cc2)C1` (stereo not drawn) [Compound 225, {1-[(4-Benzoyl-phenylcarbamoyl)-methyl]-pyrrolidin-3-yl)-methyl-carbamic acid tert-butyl ester]: the IC50 in experiment [4] came to 190 nM; in experiment [3] ([125I]PYY binding), 320 nM.
The corresponding values for `CNC1CCN(CC(=O)Nc2ccc(C(=O)c3ccccc3)cc2)C1` (stereo not drawn) [Compound 203, N-(4-Benzoyl-phenyl)-2-(3-methylamino-pyrrolidin-1-yl)-acetamide] are 180 nM and 200 nM.
The corresponding values for `O=C(CN1CCC(NC(=O)C(F)(F)F)C1)Nc1ccc(C(=O)c2ccccc2)cc1` (stereo not drawn) [Compound 207] are 50 nM and 48 nM.
As for `CC(=O)OC1CC2CC1N(CC(=O)Nc1ccc(C(=O)c3ccccc3)cc1)C2` (stereo not drawn) [Compound 231, Acetic acid 2-[(4-benzoyl-phenylcarbamoyl)-methyl]-2-aza-bicyclo[2.2.1]hept-6-yl ester], the half-inhibitory concentration (IC50) was 74 nM in experiment [4] and 67 nM in experiment [3] ([125I]PYY binding).
As for `O=C(CN1CCC(n2c(=O)[nH]c3ccccc32)CC1)NC1CC2CCC1C2` (stereo not drawn) [Compound 326, N-Bicyclo[2.2.1]hept-2-yl-2-[4-(2-oxo-2,3-dihydro-benzoimidazol-1-yl)-piperidin-1-yl] acetamide], the half-inhibitory concentration (IC50) in experiment [1] and in experiment [2] was over 5000 nM in each case.
Turning to `O=C(CNCCCn1ccnc1)Nc1ccc(C(=O)c2ccccc2)cc1` [Compound 244, N-(4-Benzoyl-phenyl)-2-(3-imidazol-1-yl-propylamino)-acetamide], the half-maximal inhibitory concentration (IC50) in experiment [4] was determined as 3000 nM; in experiment [3] ([125I]PYY binding) it was 670 nM.
